Reference: patent US12295936B2, “Immunomodulating urea azalides” (Zoetis Services LLC, priority 2020, dated 2025)

What was measured:
[1] = test system: BRD pathogens, M. haemolytica and P. multocida; assay: MIC screening panel of BRD pathogens (antibacterial / non-antibacterial); conditions: read-out: antibacterial / non-antibacterial (MIC for the BRD pathogens)
IL-1β = assay: LPS-stimulated whole bovine blood assay, MSD cytokine detection; type: cell-based; conditions: overstimulation of IL-1β, LPS-stimulated bovine whole blood
TNF-α = assay: as above; type: cell-based; conditions: Bos taurus, LPS-stimulated bovine whole blood; read-out: TNF-α (IC50 μM)
IL-6 = assay: as above; type: cell-based; conditions: Bos taurus, LPS-stimulated bovine whole blood; read-out: IL-6 (IC50 μM)
Source text: In order to correlate RNA sequencing data to cytokine changes the whole blood assay was utilized. […] The enhancement result represents an overall stimulation of cytokine levels due to cellular stress or potential toxicity with increasing concentrations of the compound, representing a typical bell shape response curve for immunomodulatory activity.

Row | IC50 (TNF-α) [µM] | IC50 (IL-6) [µM] | Structure (SMILES) | MIC [1] [µg/mL] | IL-1β OS of LPS (IL-1β) [µM]
1 | 11 | 30 | CC[C@H]1OC(=O)[C@H](C)[C@@H](O[C@H]2C[C@@](C)(OC)[C@](O)(CN=[N+]=[N-])[C@H](C)O2)[C@H](C)[C@@H](O[C@@H]2O[C@H](C)C[C@H](N(C)C(=O)N(C)c3ccccc3)[C@H]2O)[C@](C)(O)C[C@@H](C)CN[C@H](C)[C@@H](O)[C@]1(C)O [Example F-2, 1-((2S,3R,4S,6R)-2-(((2R,3S,4R,5R,8R,10R,11R,12S,13S,14R)-13-(((2R,4R,5S,6S)-5-(azidomethyl)-5-hydroxy-4-methoxy-4,6-dimethyltetrahydro-2H-pyran-2-yl)oxy)-2-ethyl-3,4,10-trihydroxy-3,5,8,10,12,14-hexamethyl-15-oxo-1-oxa-6-azacyclopentadecan-11-yl)oxy)-3-hydroxy-6-methyltetrahydro-2H-pyran-4-yl)-1,3-dimethyl-3-phenylurea] | > 64 | 40
2 | 80 | 70 | CC[C@H]1OC(=O)[C@H](C)[C@@H](O[C@H]2C[C@@](C)(OC)[C@](O)(CC#N)[C@H](C)O2)[C@H](C)[C@@H](O[C@@H]2O[C@H](C)C[C@H](N(C)C(=O)N(C)c3ccccc3)[C@H]2O)[C@](C)(O)C[C@@H](C)CN[C@H](C)[C@@H](O)[C@]1(C)O [Example G-2, 1-((2S,3R,4S,6R)-2-(((2R,3S,4R,5R,8R,10R,11R,12S,13S,14R)-13-(((2R,4R,5S,6S)-5-(cyanomethyl)-5-hydroxy-4-methoxy-4,6-dimethyltetrahydro-2H-pyran-2-yl)oxy)-2-ethyl-3,4,10-trihydroxy-3,5,8,10,12,14-hexamethyl-15-oxo-1-oxa-6-azacyclopentadecan-11-yl)oxy)-3-hydroxy-6-methyltetrahydro-2H-pyran-4-yl)-1,3-dimethyl-3-phenylurea] | > 64 | 100
3 | 6 | 5 | CCCNC[C@]1(O)[C@H](C)O[C@@H](O[C@H]2[C@H](C)[C@@H](O[C@@H]3O[C@H](C)C[C@H](N(CCC)C(=O)N(C)c4ccc(C(F)(F)F)cc4)[C@H]3O)[C@](C)(O)C[C@@H](C)CN[C@H](C)[C@@H](O)[C@](C)(O)[C@@H](CC)OC(=O)[C@@H]2C)C[C@@]1(C)OC [Example H-8, 1-((2S,3R,4S,6R)-2-(((2R,3S,4R,5R,8R,10R,11R,12S,13S,14R)-2-ethyl-3,4,10-trihydroxy-13-(((2R,4R,5S,6S)-5-hydroxy-4-methoxy-4,6-dimethyl-5-((propylamino)methyl)tetrahydro-2H-pyran-2-yl)oxy)-3,5,8,10,12,14-hexamethyl-15-oxo-1-oxa-6-azacyclopentadecan-11-yl)oxy)-3-hydroxy-6-methyltetrahydro-2H-pyran-4-yl)-3-methyl-1-propyl-3-(4-(trifluoromethyl)phenyl)urea] | > 64 | 1
4 | 23 | 30 | CC[C@H]1OC(=O)[C@H](C)[C@@H](O[C@H]2C[C@@](C)(OC)[C@](O)(CNCC(C)C)[C@H](C)O2)[C@H](C)[C@@H](O[C@@H]2O[C@H](C)C[C@H](N(C)C(=O)N(C)c3ccccc3)[C@H]2O)[C@](C)(O)C[C@@H](C)CN[C@H](C)[C@@H](O)[C@]1(C)O [Example H-24, 1-((2S,3R,4S,6R)-2-(((2R,3S,4R,5R,8R,10R,11R,12S,13S,14R)-2-ethyl-3,4,10-trihydroxy-13-(((2R,4R,5S,6S)-5-hydroxy-5-((isobutylamino)methyl)-4-methoxy-4,6-dimethyltetrahydro-2H-pyran-2-yl)oxy)-3,5,8,10,12,14-hexamethyl-15-oxo-1-oxa-6-azacyclopentadecan-11-yl)oxy)-3-hydroxy-6-methyltetrahydro-2H-pyran-4-yl)-1,3-dimethyl-3-phenylurea] | > 64 | 16
